This is an account of results in a polymer gas permeability compilation.

`*C(=C(*)c1ccc(C[Si](C)(C)C)cc1)c1ccccc1` (repeat unit) returned a CH4 permeability of 120 Barrer, a CO2 permeability of 640 Barrer, an H2 permeability of 420 Barrer and an N2 permeability of 44 Barrer. Further, the O2 permeability was 140 Barrer.

Turning to `*O[Si](C)(C)CCCCCC[Si](*)(C)C` (repeat unit), the CH4 permeability came out at 395 Barrer, the CO2 permeability is 1310 Barrer and the O2 permeability was 265 Barrer.

Turning to `*Oc1c(Br)cc(C(C)(C)c2cc(Br)c(OC(=O)c3cc(C(*)=O)cc(C(C)(C)C)c3)c(Br)c2)cc1Br` (repeat unit), the CH4 permeability was 0.853 Barrer, the CO2 permeability is 21.5 Barrer, the H2 permeability is 54 Barrer and the N2 permeability is 0.89 Barrer. For the same molecule, the O2 permeability turned out to be 5.63 Barrer.

Turning to `*Oc1c(Br)cc(C(c2cc(Br)c(OC(*)=O)c(Br)c2)(C(F)(F)F)C(F)(F)F)cc1Br` (repeat unit), the CH4 permeability is 0.89 Barrer, the CO2 permeability was 32 Barrer, the H2 permeability was found to be 10.6 Barrer and the N2 permeability stood at 1.8 Barrer. Further, the O2 permeability was found to be 9.7 Barrer.

In turn, `*Oc1c(C)cc(*)c(C(=O)c2ccc(Br)cc2)c1C` (repeat unit) showed a CH4 permeability of 1.13 Barrer, a CO2 permeability of 18 Barrer, an N2 permeability of 2.13 Barrer and an O2 permeability of 8.45 Barrer.

In turn, `*Oc1c(C)cc(*)c(C(=O)c2ccc(Cl)cc2)c1C` (repeat unit) displayed a CH4 permeability of 0.98 Barrer, a CO2 permeability of 16.8 Barrer, an N2 permeability of 1.8 Barrer and an O2 permeability of 8.6 Barrer.

As to `*Oc1c(C)cc(*)c([N+](=O)[O-])c1C` (repeat unit), the CH4 permeability stood at 2.4 Barrer, the CO2 permeability worked out at 40.4 Barrer, the N2 permeability was 2.4 Barrer and the O2 permeability worked out at 11.5 Barrer.

On to `*Oc1c(C)cc(*)cc1C` (repeat unit), for which the CH4 permeability is 4.1 Barrer, the CO2 permeability amounted to 66 Barrer, the H2 permeability came to 68.7 Barrer and the N2 permeability is 3.5 Barrer. In addition, the O2 permeability was 14.6 Barrer.

In turn, `*Oc1c(C)cc(C(C)(C)c2cc(C)c(OC(=O)c3cc(C(*)=O)cc(C(C)(C)C)c3)c(Br)c2)cc1Br` (repeat unit) came in with a CH4 permeability of 1.06 Barrer, a CO2 permeability of 22.7 Barrer, an N2 permeability of 1.06 Barrer and an O2 permeability of 6.27 Barrer.

Regarding `*Oc1c(C)cc(C(C)(C)c2cc(C)c(OC(=O)c3cccc(C(*)=O)c3)c(C)c2)cc1C` (repeat unit), the CH4 permeability turned out to be 0.472 Barrer, the CO2 permeability came to 12 Barrer, the H2 permeability came to 38.6 Barrer and the N2 permeability was 0.579 Barrer. In addition, the O2 permeability was 3.26 Barrer.

Take `*Oc1c(C)cc(C(C)(C)c2cc(C)c(Oc3ccc(C(=O)c4ccc(*)cc4)cc3)c(C)c2)cc1C` (repeat unit): the CH4 permeability turned out to be 1.1 Barrer, the CO2 permeability was found to be 20 Barrer, the H2 permeability was determined as 52 Barrer and the N2 permeability was 1.1 Barrer. The molecule also gave an O2 permeability of 5.6 Barrer.

In the case of `*Oc1c(C)cc(C(C)(C)c2cccc(C(C)(C)c3cc(C)c(Oc4ccc(S(=O)(=O)c5ccc(*)cc5)cc4)c(C)c3)c2)cc1C` (repeat unit), the CH4 permeability came to 0.28 Barrer, the CO2 permeability was 7 Barrer, the H2 permeability came to 20 Barrer and the N2 permeability came to 0.281 Barrer. Moreover, the O2 permeability came out at 1.8 Barrer.

In turn, `*Oc1c(C)cc(C(c2cc(C)c(Oc3ccc(S(=O)(=O)c4ccc(*)cc4)cc3)c(C)c2)(C(F)(F)F)C(F)(F)F)cc1C` (repeat unit) showed a CH4 permeability of 3 Barrer, a CO2 permeability of 72 Barrer, an N2 permeability of 4 Barrer and an O2 permeability of 18 Barrer.

`*Oc1cc(C)c(C2(c3cc(C)c(Oc4ccc(S(=O)(=O)c5ccc(*)cc5)cc4)cc3C)OC(=O)c3ccccc32)cc1C` (repeat unit) registered a CH4 permeability of 0.225 Barrer, a CO2 permeability of 7.69 Barrer, an H2 permeability of 16.9 Barrer and an N2 permeability of 0.21 Barrer. Further, the O2 permeability was 1.55 Barrer.

`*Oc1cc2c(cc1O*)C(=O)N(c1c(C)c(C)c(-n3c(=O)c4cc5oc6cc7c(cc6oc5cc4c3=O)C3(C(C)C)c4ccccc4C7(C(C)C)c4cc(*)c(*)cc43)c(C)c1C)C2=O` (repeat unit): the CH4 permeability came out at 83.7 Barrer, the H2 permeability came out at 3430 Barrer, the N2 permeability came out at 87.4 Barrer and the O2 permeability worked out at 542 Barrer.

For `*Oc1cc2c(cc1O*)C(C)(C)CC1(CC(C)(C)c3cc4c(cc3O1)Oc1c(C#N)c(*)c(*)c(C#N)c1O4)O2` (repeat unit), the CH4 permeability stood at 93 Barrer, the CO2 permeability was 1540 Barrer, the H2 permeability stood at 750 Barrer and the N2 permeability is 61.5 Barrer. In addition, the O2 permeability came to 212 Barrer.

In the case of `*Oc1cc2c(cc1O*)C1(CC2(C)C)CC(C)(C)c2cc3oc4cc5c(=O)n(-c6c(C)c(C)c(N7C(=O)c8cc(*)c(*)cc8C7=O)c(C)c6C)c(=O)c5cc4oc3cc21` (repeat unit), the CH4 permeability came to 27 Barrer, the CO2 permeability was 520 Barrer, the H2 permeability was determined as 360 Barrer and the N2 permeability amounted to 23 Barrer. Moreover, the O2 permeability turned out to be 85 Barrer.

`*Oc1cc2c(cc1O*)C1(CC2(C)CC)c2cc3c(cc2C(C)(CC)C1C)Oc1c(C#N)c(*)c(*)c(C#N)c1O3` (repeat unit) returned a CH4 permeability of 580 Barrer, a CO2 permeability of 6100 Barrer, an H2 permeability of 2100 Barrer and an N2 permeability of 320 Barrer. For the same molecule, the O2 permeability worked out at 820 Barrer.

Turning to `*Oc1cc2c(cc1O*)C1(c3cc(C(C)(C)C)ccc3-2)c2cc(C(C)(C)C)ccc2-c2cc3c(cc21)Oc1c(C#N)c(*)c(*)c(C#N)c1O3` (repeat unit), the CH4 permeability stood at 1700 Barrer, the CO2 permeability came to 13200 Barrer, the H2 permeability is 5150 Barrer and the N2 permeability came to 815 Barrer. The same molecule gave an O2 permeability of 2310 Barrer.

Turning to `*Oc1cc2c(cc1O*)C1(c3cc(C)ccc3-2)c2cc(C)ccc2-c2cc3c(cc21)Oc1c(C#N)c(*)c(*)c(C#N)c1O3` (repeat unit), the CH4 permeability was found to be 582 Barrer, the CO2 permeability turned out to be 8500 Barrer, the H2 permeability came out at 4430 Barrer and the N2 permeability was 380 Barrer. The O2 permeability was determined as 1510 Barrer.

As for `*Oc1cc2c(cc1O*)C1(c3ccccc3-2)c2ccccc2-c2cc3c(cc21)Oc1c(C#N)c(*)c(*)c(C#N)c1O3` (repeat unit), the CH4 permeability is 622 Barrer, the CO2 permeability came out at 8890 Barrer, the H2 permeability stood at 4520 Barrer and the N2 permeability was 442 Barrer. The same molecule showed an O2 permeability of 1620 Barrer.

As to `*Oc1cc2c(cc1O*)C1(c3ccccc3-c3cc4c(cc31)Oc1c(C#N)c(*)c(*)c(C#N)c1O4)c1cc(C)c(C)cc1-2` (repeat unit), the CH4 permeability is 563 Barrer, the CO2 permeability came out at 7880 Barrer, the H2 permeability came out at 4420 Barrer and the N2 permeability came to 341 Barrer. The molecule also registered an O2 permeability of 1390 Barrer.

`*Oc1ccc(-c2c(-c3ccc(C#N)cc3)c(-c3ccc(C#N)cc3)c(-c3ccc4c(c3)Oc3c(C#N)c(*)c(*)c(C#N)c3O4)c(-c3ccc(C#N)cc3)c2-c2ccc(C#N)cc2)cc1O*` (repeat unit) returned a CH4 permeability of 93 Barrer, a CO2 permeability of 1300 Barrer, an H2 permeability of 734 Barrer and an N2 permeability of 52 Barrer. This molecule registered an O2 permeability of 205 Barrer.

Take `*Oc1ccc(-c2c(-c3ccc(C)cc3)c(-c3ccc(C)cc3)c(-c3ccc4c(c3)Oc3c(C#N)c(*)c(*)c(C#N)c3O4)c(-c3ccc(C)cc3)c2-c2ccc(C)cc2)cc1O*` (repeat unit): the CH4 permeability turned out to be 132 Barrer, the CO2 permeability came out at 1630 Barrer, the H2 permeability worked out at 856 Barrer and the N2 permeability turned out to be 60 Barrer. The O2 permeability was determined as 256 Barrer.

`*Oc1ccc(-c2ccc(Oc3c(F)c(F)c(COC(C4CCCC(C(OCc5c(F)c(F)c(*)c(F)c5F)(C(F)(F)F)C(F)(F)F)C4)(C(F)(F)F)C(F)(F)F)c(F)c3F)cc2)cc1` (repeat unit) came in with a CH4 permeability of 0.34 Barrer, a CO2 permeability of 8.2 Barrer, an H2 permeability of 20 Barrer and an N2 permeability of 0.61 Barrer. This molecule gave an O2 permeability of 2.5 Barrer.

`*Oc1ccc(-c2ccc(Oc3ccc(S(=O)(=O)c4ccc(*)cc4)cc3)cc2)cc1` (repeat unit) showed a CH4 permeability of 0.25 Barrer, a CO2 permeability of 5.6 Barrer, an H2 permeability of 28 Barrer and an N2 permeability of 0.24 Barrer. This molecule also came in with an O2 permeability of 1.3 Barrer.

`*Oc1ccc(C(=O)c2ccc(-c3ccc(C(=O)c4ccc(Oc5ccc(S(=O)(=O)c6ccc(*)cc6)cc5)cc4)cc3)cc2)cc1` (repeat unit) displayed a CH4 permeability of 0.12 Barrer, a CO2 permeability of 3.27 Barrer, an H2 permeability of 8.38 Barrer and an N2 permeability of 0.11 Barrer. This molecule also came in with an O2 permeability of 0.64 Barrer.

In turn, `*Oc1ccc(C(=O)c2ccc(Oc3c(C)cc(-c4cc(C)c(*)c(C)c4)cc3C)cc2)cc1` (repeat unit) returned a CH4 permeability of 1.02 Barrer, a CO2 permeability of 19.4 Barrer, an N2 permeability of 0.971 Barrer and an O2 permeability of 4.76 Barrer.

In the case of `*Oc1ccc(C(=O)c2ccc(Oc3ccc(C(c4ccc(*)cc4)(C(F)(F)F)C(F)(F)F)cc3)cc2)c2ccccc12` (repeat unit), the CH4 permeability came to 0.21 Barrer, the CO2 permeability amounted to 6.04 Barrer, the N2 permeability was 0.325 Barrer and the O2 permeability was determined as 1.85 Barrer.

Take `*Oc1ccc(C(=O)c2ccccc2-c2ccccc2C(=O)c2ccc(Oc3ccc(C(c4ccc(*)cc4)(C(F)(F)F)C(F)(F)F)cc3)cc2)cc1` (repeat unit): the CH4 permeability amounted to 0.087 Barrer, the CO2 permeability was determined as 3.12 Barrer, the N2 permeability turned out to be 0.146 Barrer and the O2 permeability was 0.99 Barrer.

The molecule `*Oc1ccc(C(C)(C)c2ccc(OC(=O)c3cc(C(*)=O)cc(C(C)(C)C)c3)c(C(C)C)c2)cc1C(C)C` (repeat unit) returned a CH4 permeability of 1.43 Barrer, a CO2 permeability of 16.1 Barrer, an H2 permeability of 41.4 Barrer and an N2 permeability of 1.08 Barrer. Further, the O2 permeability was found to be 5.03 Barrer.
